This note sets out measurements from paper PMC12903969, “Discovery of a Novel and Potent Kir4.1 Inhibitor as a Safe and Rapid‐Onset Antidepressant Agent in Mice” (Advanced Science, 2025).

The target in one assay is T1, hERG (Homo sapiens, UniProt Q12809).
T1 construct: expressed in transfected cells; host or cells: CHO-hERG
The assay is described as follows: hERG inhibition (QPatch, CHO-hERG cells). It counts as cell-based. As to the method: CHO‐hERG cells were cultured to 60–80% confluency in 175‐cm^2 flasks, washed with PBS, and digested with detachin. After centrifugation, the cells were resuspended in medium at 2–5×10^6 mL^−1. Patch‐clamp recordings were performed using a QPatch with extracellular solution (140 NaCl, 5 KCl, 2 CaCl2, 1 MgCl2, 10 HEPES, 10 glucose, pH 7.4) and intracellular solution (145 KCl, 1 MgCl2, 5 EGTA, 10 HEPES, 5 Mg‐ATP, pH 7.3). Cells were clamped at −80 mV, stimulated with a 50 ms pre‐pulse to −50 mV, followed by 2 s depolarization to +40 mV, and 2 s repolarization to −50 mV, repeated every 5 s. After baseline recording, the test compound at various concentrations or 300 nM cisapride (positive control) was applied.

Another assay addresses T2, Kir4.1 T128A (Homo sapiens, UniProt P78508, T128A).
T2 construct: expressed in transfected cells; host or cells: CHO-K1
T2 sequence (P78508 1-379 T128A): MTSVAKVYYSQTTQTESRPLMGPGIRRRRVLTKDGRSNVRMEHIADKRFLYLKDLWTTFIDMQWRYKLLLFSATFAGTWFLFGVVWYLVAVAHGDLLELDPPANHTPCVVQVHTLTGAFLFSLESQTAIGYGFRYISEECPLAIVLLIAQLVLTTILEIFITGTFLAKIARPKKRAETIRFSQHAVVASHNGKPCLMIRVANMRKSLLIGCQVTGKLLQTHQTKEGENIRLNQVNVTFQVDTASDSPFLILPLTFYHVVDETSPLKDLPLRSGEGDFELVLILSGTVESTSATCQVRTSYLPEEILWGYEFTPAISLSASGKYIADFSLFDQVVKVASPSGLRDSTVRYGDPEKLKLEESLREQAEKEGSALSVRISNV
The assay is described as follows: Whole-cell patch clamp, Kir4.1 point mutant T128A. It is filed as cell-based. The method, then: Plasmids encoding WT human potassium channels Kir1.1, Kir2.1, Kir2.2, Kir4.1, and Kir4.2 were obtained from the Beijing Genomics Institute. All point mutations were constructed using the QuickChange II Site‐Directed Mutagenesis Kit (Stratagene) and subsequently verified by sequencing.
CHO‐K1 cells were maintained in DMEM/F12 growth medium containing 10% fetal bovine serum. Plasmids encoding the target genes (3600 ng) and enhanced green fluorescent protein (400 ng) were cotransfected into cells using Lipofectamine 2000 (Invitrogen) in accordance with the manufacturer's instructions. Cells were seeded onto poly‐d‐lysine (PDL)‐coated glass coverslips 1 h prior to electrophysiological recordings. All cells were cultured under standard conditions of 5% CO2 at 37 °C.
Whole‐cell patch‐clamp recordings were obtained either in transiently transfected CHO‐K1 cells or in primary cultured astrocytes at room temperature using standard patch‐clamp techniques with an Axopatch‐700B amplifier (Axon Instruments). The signals were filtered at 2 kHz and sampled at 20 kHz using the Digidata 1440A interface (Axon Instruments). The resistance of borosilicate glass pipettes was typically 2–4 MΩ when filled with the internal solution. Drug application was facilitated using a BPS perfusion system (ALA Scientific Instruments). Macroscopic currents generated by expressed potassium channels were recorded under the voltage‐clamp conditions with an internal pipette solution composed of (in mM): 140 KCl, 5 NaCl, 1 CaCl2, 1 MgCl2, 10 HEPES, and 10 EGTA, pH 7.2 adjusted with KOH. The external solution contained (in mM): 140 NaCl, 5 KCl, 2 CaCl2, 1 MgCl2, 10 glucose, and 10 HEPES, pH 7.4 adjusted with NaOH. Currents were elicited with a hyperpolarized voltage at −120 mV from the holding potential of −80 mV, followed by a ramp voltage depolarizing to +50 mV. Astrocytic resting membrane potentials were recorded under current‐clamp conditions (I = 0 pA) using standard internal and external solutions, determined immediately after achieving whole‐cell mode.

Where “and” joins values, the source holds several entries; their conditions need not be identical. Equal entries are not always repeated. Where two headings read alike, the source gives them in different places.

T1 sequence (Q12809 whole entry): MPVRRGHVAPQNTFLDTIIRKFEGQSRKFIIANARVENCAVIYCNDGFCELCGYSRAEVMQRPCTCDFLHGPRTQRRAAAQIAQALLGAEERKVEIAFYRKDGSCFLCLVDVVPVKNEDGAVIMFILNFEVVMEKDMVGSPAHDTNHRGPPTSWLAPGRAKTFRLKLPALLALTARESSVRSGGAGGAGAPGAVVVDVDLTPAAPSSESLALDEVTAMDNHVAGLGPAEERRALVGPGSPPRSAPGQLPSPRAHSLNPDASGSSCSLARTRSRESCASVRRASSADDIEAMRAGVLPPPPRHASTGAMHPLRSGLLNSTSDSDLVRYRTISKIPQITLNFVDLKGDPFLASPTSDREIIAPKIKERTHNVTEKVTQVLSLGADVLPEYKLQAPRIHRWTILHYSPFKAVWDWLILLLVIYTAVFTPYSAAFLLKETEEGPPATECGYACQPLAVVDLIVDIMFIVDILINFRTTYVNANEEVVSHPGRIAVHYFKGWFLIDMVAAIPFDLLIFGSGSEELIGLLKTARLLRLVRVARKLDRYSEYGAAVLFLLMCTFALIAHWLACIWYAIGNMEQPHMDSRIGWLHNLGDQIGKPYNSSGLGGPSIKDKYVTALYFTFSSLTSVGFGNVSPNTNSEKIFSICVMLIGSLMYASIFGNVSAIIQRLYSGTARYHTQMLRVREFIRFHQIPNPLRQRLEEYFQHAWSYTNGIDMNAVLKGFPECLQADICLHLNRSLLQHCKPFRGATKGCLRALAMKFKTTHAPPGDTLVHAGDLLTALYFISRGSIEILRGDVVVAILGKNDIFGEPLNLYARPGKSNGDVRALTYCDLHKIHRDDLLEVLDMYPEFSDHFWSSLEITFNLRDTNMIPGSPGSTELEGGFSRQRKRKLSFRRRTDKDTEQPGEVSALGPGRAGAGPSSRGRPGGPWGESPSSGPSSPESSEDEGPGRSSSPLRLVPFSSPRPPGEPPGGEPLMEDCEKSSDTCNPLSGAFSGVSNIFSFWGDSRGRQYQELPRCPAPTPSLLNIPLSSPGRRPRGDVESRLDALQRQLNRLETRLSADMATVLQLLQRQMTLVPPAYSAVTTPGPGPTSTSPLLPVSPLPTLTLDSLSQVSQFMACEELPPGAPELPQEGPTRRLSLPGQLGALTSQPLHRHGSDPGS

`c1ccc2c(c1)oc1ccc(Nc3ccnc(NCCCN4CCOCC4)n3)cc12` [JX3212, N^4-(dibenzo[b,d]furan-2-yl)-N^2-(3-morpholinopropyl)pyrimidine-2,4-diamine] yielded an IC50 at hERG of 1.02 µM. Besides, the inhibition at 3 µM at Kir4.1 T128A (3 µM, mean ± SEM, read-out: current inhibition, Kir4.1 T128A) amounted to 33.9 ± 4.58%; on Kir4.1 T128A (JX3212 3 µM (Fig 2D), read-out: Mutation: T128A inhibition, single recordings) it was 31.1%. Also, the “Mutation: T128A inhibition, single recordings” value at Kir4.1 T128A (JX3212 3 µM (Fig 2D)) is 37.4256 and 28.9608 and 38.1757.
